Structures are written as SMILES.

T1 sequence (O14842 whole entry): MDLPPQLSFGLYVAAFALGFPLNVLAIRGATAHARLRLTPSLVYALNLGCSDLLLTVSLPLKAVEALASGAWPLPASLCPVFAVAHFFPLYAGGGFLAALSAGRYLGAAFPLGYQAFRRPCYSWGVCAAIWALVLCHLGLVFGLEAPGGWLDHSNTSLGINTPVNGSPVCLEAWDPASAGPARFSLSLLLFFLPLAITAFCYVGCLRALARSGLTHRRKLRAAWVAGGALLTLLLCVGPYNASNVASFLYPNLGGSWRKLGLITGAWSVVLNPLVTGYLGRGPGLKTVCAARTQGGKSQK

This experiment addresses T1, human GPR40 (Homo sapiens, UniProt O14842).
T1 construct: expressed in transfected cells
Put plainly: Evaluation of human GPR40 agonist activity with increase in intracellular Ca2+ concentration as an index (FLIPR). In kind it is cell-based. The following applies: test compound 1 μM; CHO(dhfr−) cells stably expressing human GPR40; 100% = 10 μM compound of Example 153, 0% = DMSO. In outline: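 CHO(dhfr−) cells stably expressing full-length human GPR40 were loaded with Ca2+ probe for 1 h at room temperature, then given test compound at 1 μM final. Fluorescence was followed on FLIPR, with activity scaled to a reference agonist at 10 μM (100%) and DMSO (0%).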
The compound `COc1ccc(C(=O)N(CC(C)(C)OC)c2cc(C)ccn2)c(N2CCC(COc3cc(C(CC(=O)O)C4CC4)ccn3)CC2)c1` (stereo not drawn) [Example 164, 3-cyclopropyl-3-(2-((1-(5-methoxy-2-((2-methoxy-2-methylpropyl)(4-methylpyridin-2-yl)carbamoyl)phenyl)piperidin-4-yl)methoxy)pyridin-4-yl)propanoic acid] gave an activation at 1 µM of 88%.

The compound `COc1ccc(C(=O)N(c2ccccn2)C2CC(F)(F)C2)c(N2CCC(COc3cc(C(CC(=O)O)C4CC4)ccn3)CC2)c1` (stereo not drawn) [Example 165, 3-cyclopropyl-3-(2-((1-(2-((3,3-difluorocyclobutyl)(pyridin-2-yl)carbamoyl)-5-methoxyphenyl)piperidin-4-yl)methoxy)pyridin-4-yl)propanoic acid] yielded an activation at 1 µM of 97%. The result for `COc1ccc(C(=O)N(CC(F)(F)F)c2ncccn2)c(N2CCC(COc3cc(C(CC(=O)O)C4CC4)ccn3)CC2)c1` (stereo not drawn) [Example 166, 3-cyclopropyl-3-(2-((1-(5-methoxy-2-(pyrimidin-2-yl(2,2,2-trifluoroethyl)carbamoyl)phenyl)piperidin-4-yl)methoxy)pyridin-4-yl)propanoic acid] reads 97%; that for `COc1ccc(C(=O)N(CC(F)F)c2ncccn2)c(N2CCC(COc3cc(C(CC(=O)O)C4CC4)ccn3)CC2)c1` (stereo not drawn) [Example 167, 3-cyclopropyl-3-(2-((1-(2-((2,2-difluoroethyl)(pyrimidin-2-yl)carbamoyl)-5-methoxyphenyl)piperidin-4-yl)methoxy)pyridin-4-yl)propanoic acid], 90%; that for `COc1ccc(C(=O)N(CC(F)(F)F)c2nc(C)cc(C)n2)c(N2CCC(COc3cc(C(CC(=O)O)C4CC4)ccn3)CC2)c1` (stereo not drawn) [Example 168, 3-cyclopropyl-3-(2-((1-(2-((4,6-dimethylpyrimidin-2-yl)(2,2,2-trifluoroethyl)carbamoyl)-5-methoxyphenyl)piperidin-4-yl)methoxy)pyridin-4-yl)propanoic acid], 100%. In the case of `COc1ccc(C(=O)N(CC(F)(F)F)c2nccc(C)n2)c(N2CCC(COc3cc(C(CC(=O)O)C4CC4)ccn3)CC2)c1` (stereo not drawn) [Example 169, 3-cyclopropyl-3-(2-((1-(5-methoxy-2-((4-methylpyrimidin-2-yl)(2,2,2-trifluoroethyl)carbamoyl)phenyl)piperidin-4-yl)methoxy)pyridin-4-yl)propanoic acid], the activation at 1 µM worked out at 106%.

In the case of `COc1ccc(C(=O)N(CC(F)(F)C(F)(F)F)c2ncccn2)c(N2CCC(COc3cc(C(CC(=O)O)C4CC4)ccn3)CC2)c1` (stereo not drawn) [Example 170, 3-cyclopropyl-3-(2-((1-(5-methoxy-2-((2,2,3,3,3-pentafluoropropyl)(pyrimidin-2-yl)carbamoyl)phenyl)piperidin-4-yl)methoxy)pyridin-4-yl)propanoic acid], the activation at 1 µM was 104%.

Compound `COc1ccc(C(=O)N(CC(F)(F)C(F)(F)F)c2nccc(C)n2)c(N2CCC(COc3cc(C(CC(=O)O)C4CC4)ccn3)CC2)c1` (stereo not drawn) [Example 171, 3-cyclopropyl-3-(2-((1-(5-methoxy-2-((4-methylpyrimidin-2-yl)(2,2,3,3,3-pentafluoropropyl)carbamoyl)phenyl)piperidin-4-yl)methoxy)pyridin-4-yl)propanoic acid] had an activation at 1 µM of 106%. `COc1ccc(C(=O)N(CC(F)F)c2nccc(C)n2)c(N2CCC(COc3cc(C(CC(=O)O)C4CC4)ccn3)CC2)c1` (stereo not drawn) [Example 172, 3-cyclopropyl-3-(2-((1-(2-((2,2-difluoroethyl)(4-methylpyrimidin-2-yl)carbamoyl)-5-methoxyphenyl)piperidin-4-yl)methoxy)pyridin-4-yl)propanoic acid] had an activation at 1 µM of 97%.

In turn, `COc1ccc(C(=O)N(CC(C)(C)C)c2nccc(C)n2)c(N2CCC(COc3cc(C(CC(=O)O)C4CC4)ccn3)CC2)c1` (stereo not drawn) [Example 173, 3-cyclopropyl-3-(2-((1-(2-((2,2-dimethylpropyl)(4-methylpyrimidin-2-yl)carbamoyl)-5-methoxyphenyl)piperidin-4-yl)methoxy)pyridin-4-yl)propanoic acid] yielded an activation at 1 µM of 103%. For the compound `COc1ccc(C(=O)N(CC(C)(C)C)c2nc(C)cc(C)n2)c(N2CCC(COc3cc(C(CC(=O)O)C4CC4)ccn3)CC2)c1` (stereo not drawn) [Example 174, 3-cyclopropyl-3-(2-((1-(2-((2,2-dimethylpropyl)(4,6-dimethylpyrimidin-2-yl)carbamoyl)-5-methoxyphenyl)piperidin-4-yl)methoxy)pyridin-4-yl)propanoic acid], the activation at 1 µM was 104%.

In turn, `COc1ccc(C(=O)N(CC(F)(F)F)c2cncc(C)c2)c(N2CCC(COc3cc(C(CC(=O)O)C4CC4)ccn3)CC2)c1` (stereo not drawn) [Example 175, 3-cyclopropyl-3-(2-((1-(5-methoxy-2-((5-methylpyridin-3-yl)(2,2,2-trifluoroethyl)carbamoyl)phenyl)piperidin-4-yl)methoxy)pyridin-4-yl)propanoic acid] registered an activation at 1 µM of 90%. In turn, `COc1ccc(C(=O)N(CC(C)(C)C)c2cnccn2)c(N2CCC(COc3cc(C(CC(=O)O)C4CC4)ccn3)CC2)c1` (stereo not drawn) [Example 178, 3-cyclopropyl-3-(2-((1-(2-((2,2-dimethylpropyl)(pyrazin-2-yl)carbamoyl)-5-methoxyphenyl)piperidin-4-yl)methoxy)pyridin-4-yl)propanoic acid] had an activation at 1 µM of 103%. Next, `COc1ccc(C(=O)N(CC(C)(C)C)c2cccnn2)c(N2CCC(COc3cc(C(CC(=O)O)C4CC4)ccn3)CC2)c1` (stereo not drawn) [Example 179, 3-cyclopropyl-3-(2-((1-(2-((2,2-dimethylpropyl)(pyridazin-3-yl)carbamoyl)-5-methoxyphenyl)piperidin-4-yl)methoxy)pyridin-4-yl)propanoic acid]: 84%. Turning to `COc1ccc(C(=O)N(CC(C)(C)C)c2cncc(Cl)n2)c(N2CCC(COc3cc(C(CC(=O)O)C4CC4)ccn3)CC2)c1` (stereo not drawn) [Example 180, 3-(2-((1-(2-((6-chloropyrazin-2-yl)(2,2-dimethylpropyl)carbamoyl)-5-methoxyphenyl)piperidin-4-yl)methoxy)pyridin-4-yl)-3-cyclopropylpropanoic acid], the activation at 1 µM turned out to be 105%.

In turn, `COc1ccc(C(=O)N(Cc2ccccn2)CC(C)(C)C)c(N2CCC(COc3cc(C(CC(=O)O)C4CC4)ccn3)CC2)c1` (stereo not drawn) [Example 181, 3-cyclopropyl-3-(2-((1-(2-((2,2-dimethylpropyl)(pyridin-2-ylmethyl)carbamoyl)-5-methoxyphenyl)piperidin-4-yl)methoxy)pyridin-4-yl)propanoic acid] displayed an activation at 1 µM of 91%. In the case of `COc1ccc(C(=O)N(CC(C)(C)OC)c2ccccc2)c(N2CCC(COc3cc(C(CC(=O)O)C4CC4)ccn3)CC2)c1` (stereo not drawn) [Example 188, 3-cyclopropyl-3-(2-((1-(5-methoxy-2-((2-methoxy-2-methylpropyl)(phenyl)carbamoyl)phenyl)piperidin-4-yl)methoxy)pyridin-4-yl)propanoic acid], the activation at 1 µM came out at 95%. With `COc1ccc(C(=O)N(CC2(F)CC2)c2ccccc2)c(N2CCC(COc3cc(C(CC(=O)O)C4CC4)ccn3)CC2)c1` (stereo not drawn) [Example 189, 3-cyclopropyl-3-(2-((1-(2-(((1-fluorocyclopropyl)methyl)(phenyl)carbamoyl)-5-methoxyphenyl)piperidin-4-yl)methoxy)pyridin-4-yl)propanoic acid], the activation at 1 µM came to 89%.

Values taken from patent US9776962B2, “Aromatic compounds with GPR40 agonistic activity” (TAKEDA PHARMACEUTICAL COMPANY LIMITED, priority 2013, dated 2017).
